Laboratory results as given in publication PMC2606016 (The Journal of Biological Chemistry, 2008).

Columns and labels:
HoNTT = target: T1, HoNTT (Holospora obtusa, UniProt W6TTK3); conditions: 30 °C; labelled compound
T1 sequence (W6TTK3 1-514): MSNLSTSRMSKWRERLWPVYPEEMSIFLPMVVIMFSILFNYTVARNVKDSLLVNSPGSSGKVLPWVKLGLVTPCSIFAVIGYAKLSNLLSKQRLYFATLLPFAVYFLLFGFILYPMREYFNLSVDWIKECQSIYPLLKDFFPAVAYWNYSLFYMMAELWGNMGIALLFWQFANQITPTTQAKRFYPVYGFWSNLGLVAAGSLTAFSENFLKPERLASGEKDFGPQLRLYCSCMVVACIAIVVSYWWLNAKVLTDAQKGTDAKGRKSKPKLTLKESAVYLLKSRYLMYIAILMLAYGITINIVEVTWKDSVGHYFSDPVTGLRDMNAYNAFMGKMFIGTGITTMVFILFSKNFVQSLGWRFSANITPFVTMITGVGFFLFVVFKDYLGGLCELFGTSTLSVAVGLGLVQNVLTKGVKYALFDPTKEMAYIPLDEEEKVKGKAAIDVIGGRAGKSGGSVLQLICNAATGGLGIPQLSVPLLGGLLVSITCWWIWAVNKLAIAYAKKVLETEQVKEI

AtNTT1 = target: T2, AtNTT1 (Arabidopsis thaliana, UniProt Q39002); conditions: 30 °C; labelled compound
T2 sequence (Q39002 87-624): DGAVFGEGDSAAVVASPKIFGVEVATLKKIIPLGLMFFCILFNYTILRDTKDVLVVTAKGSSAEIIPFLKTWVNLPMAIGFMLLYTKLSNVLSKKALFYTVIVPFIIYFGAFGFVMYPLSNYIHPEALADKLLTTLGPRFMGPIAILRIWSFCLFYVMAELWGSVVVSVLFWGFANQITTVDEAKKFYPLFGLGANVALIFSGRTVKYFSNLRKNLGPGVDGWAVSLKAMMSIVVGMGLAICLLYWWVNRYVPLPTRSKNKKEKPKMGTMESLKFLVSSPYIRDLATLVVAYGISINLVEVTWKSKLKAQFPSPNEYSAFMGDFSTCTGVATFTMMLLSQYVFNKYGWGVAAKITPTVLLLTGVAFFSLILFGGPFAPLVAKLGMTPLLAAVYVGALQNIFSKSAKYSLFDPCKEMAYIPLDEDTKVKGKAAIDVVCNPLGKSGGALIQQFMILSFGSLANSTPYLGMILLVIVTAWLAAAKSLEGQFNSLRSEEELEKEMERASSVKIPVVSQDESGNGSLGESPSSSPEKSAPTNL

SMILES: Nc1ncnc2c1ncn2[C@@H]1O[C@H](COP(=O)(O)OP(=O)(O)OP(=O)(O)O)[C@@H](O)[C@H]1O [ATP]
- uptake of labelled substrate into proteoliposomes (HoNTT): All recombinant carriers mediated ATP and ADP transport
- uptake of labelled substrate into proteoliposomes (AtNTT1): All recombinant carriers mediated ATP and ADP transport
